Experimental data as given in US20230174649A1, “PHARMACEUTICAL COMPOSITIONS CONTAINING ANTI-CD47 ANTIBODIES” (I-MAB BIOPHARMA US LIMITED, priority 2020, published 2023).
“And” between values parts separate entries of the source, which are not always exact repeats. Equal values may be shown once.

Tests used:
Format in all cases: cell-based, Human
[1] = test system: CD47; test: FACS analysis of expression level of CD47 on tumor cell surface; conditions: Toledo cells, 12 hours
Method: (§1) For FACS analysis, on the day of analysis (day 1), Toledo cells were seeded into 96 well plate and cultured at a density of 0.2×10^6 cells/well. Then the cells were treated with the selected small molecule therapeutic agents for 12 hours.
(§2) On day 2, cells were harvested, washed twice and then re-suspended in 100 uL FACS buffer subject to FACS analysis. For detection of the expression of calreticulin and CD47, cells were incubated with anti-calreticulin antibody and commercially available anti-CD47 antibody (BD Biosciences, Catalog number: 561249) in dark at 4° C. for 30 mins.
(§3) Then, the cells were subject to FACS analysis. Data was acquired and analyzed.

[2] = test system: macrophages; test: Macrophage Viability Assay (CellTiter-Glo); conditions: for Macrophage viability (CellTiter-Glo Luminescent Cell Viability Assay): 16 hours, three replicate lines
Method: Then, the monocytes isolated by MACS were subsequently cultured in fresh complete medium supplemented with recombinant human granulocyte-macrophage colony-stimulating factor GM-CSF (50 ng/ml) and human recombinant IL-4 (35 ng/ml) to activate differentiated macrophages. After 6 days of culture (on day 7), cells were harvested, pooled together and counted for next use.
The cells from Example 2 were plated into a 96-well flat bottom plate at a density of 0.05×10^6 cells/well. After 2 hours of incubation, the macrophages were well attached to the plate. Then selected small molecule therapeutic agents were added to the well and cocultured for 16 hours. On day 8, macrophage viability was assessed by CellTiter-Glo® Luminescent Cell Viability Assay, according to the manufacture's instruction.

[3] = test system: Calreticulin; test: FACS analysis of expression level of calreticulin on tumor cell surface; conditions: Toledo cells, 12 hours
Method: as §1, §2, §3

Structure (SMILES)	Mean Fluorescence Intensity (MFI) CD47 ([1]; 0.008 uM)	Mean Fluorescence Intensity (MFI) CD47 ([1]; 0.04 uM)	Mean Fluorescence Intensity (MFI) CD47 ([1]; 0.2 uM)	Mean Fluorescence Intensity (MFI) CD47 ([1]; 1 uM)	Mean Fluorescence Intensity (MFI) CD47 ([1]; 5 uM)	Macrophage viability (CellTiter-Glo Luminescent Cell Viability Assay) ([2]; Cpd 0.002 uM)	Macrophage viability (CellTiter-Glo Luminescent Cell Viability Assay) ([2]; Cpd 0.008 uM)	Macrophage viability (CellTiter-Glo Luminescent Cell Viability Assay) ([2]; Cpd 0.04 uM)	Macrophage viability (CellTiter-Glo Luminescent Cell Viability Assay) ([2]; Cpd 0.2 uM)	Macrophage viability (CellTiter-Glo Luminescent Cell Viability Assay) ([2]; Cpd 1 uM)	Macrophage viability (CellTiter-Glo Luminescent Cell Viability Assay) ([2]; Cpd 5 uM)	Macrophage viability (CellTiter-Glo Luminescent Cell Viability Assay) ([2]; Cpd 25 uM)	Macrophage viability (CellTiter-Glo Luminescent Cell Viability Assay) ([2]; Cpd 50 uM)	toxicity to macrophages ([2]; dose of 0.1-50 μM)	Mean Fluorescence Intensity (MFI) Calreticulin ([3]; 0.008 uM)	Mean Fluorescence Intensity (MFI) Calreticulin ([3]; 0.04 uM)	Mean Fluorescence Intensity (MFI) Calreticulin ([3]; 0.2 uM)	Mean Fluorescence Intensity (MFI) Calreticulin ([3]; 1 uM)	Mean Fluorescence Intensity (MFI) Calreticulin ([3]; 5 uM)	also measured
CC[C@H](Nc1ncnc2[nH]cnc12)c1nc2cccc(F)c2c(=O)n1-c1ccccc1 [Idelalisib]	8342	8538	8246	8465	8263	5888 and 5908 and 5980	6164 and 6056 and 5948	6144 and 6304 and 5916	6040 and 6048 and 6220	5376 and 5640 and 5744	5092 and 5220 and 5060	4508 and 4884 and 4908	4404 and 4648 and 4964	obvious toxicity	69.4	72.9	70.6	77.6	75.8	
C[C@H](Nc1ncnc2nc[nH]c12)c1cc2cccc(Cl)c2c(=O)n1-c1ccccc1 [Duvelisib]	8368	8376	8471	8432	8482	5688 and 5876 and 6184	5484 and 5444 and 5664	5228 and 5348 and 5760	5028 and 4984 and 5264	4592 and 4776 and 4880	4464 and 4584 and 4404	4176 and 4276 and 4156	3972 and 3992 and 3860	obvious toxicity	71.4	71.2	71.4	75.7	75.9	
C=CC(=O)N1CCC[C@@H](n2nc(-c3ccc(Oc4ccccc4)cc3)c3c(N)ncnc32)C1 [Ibrutinib]	8453	8490	8415	8345	8345	4948 and 4988 and 5520	4880 and 5316 and 5780	4688 and 5488 and 5780	4932 and 5736 and 6152	5056 and 5624 and 6224	4864 and 5828 and 6004	4680 and 5100 and 5572	3732 and 4296 and 4508		70.6	73.1	74.5	69.9	79	toxicity to macrophages ([2]; dose as high as 50 μM): showed toxicity; toxicity to macrophages ([2]; dose lower than 10 μM): little toxic
